Assay results published in patent publication US9980943B2, “Methods of treating muscular dystrophy” (BOARD OF REGENTS OF THE NEVADA SYSTEM OF HIGHER EDUCATION, …, priority 2013, dated 2018).

Experiments:
Format in all cases: cell-based, mouse
[1] = tested on: β-galactosidase in CMV-LacZ C2C12 myotubes; test: CMV-LacZ secondary screen in C2C12 myotubes (β-Gal stabilizing assay); conditions: for CMV-LACZ in Myotubes, signal relative to DMSO: C2C12 CMV-LacZ myotubes, fold relative to DMSO; for CMV-LACZ in Myotubes, value relative to DMSO: SU9516 analogs, C2C12 CMV-LacZ, N=2
Procedure, shortened: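 Stable CMV-LacZ C2C12 clone; six-point curve 0.5–40 μM; duplicates.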

[2] = tested on: β-galactosidase in CMV-LacZ C2C12 myoblasts; test: CMV-LacZ secondary screen in C2C12 myoblasts (β-Gal stabilizing assay); conditions: for CMV-LACZ in Myoblasts (β-galactosidase activity relative to DMSO): CMV-LacZ C2C12 myoblasts; for CMV-LACZ in Myoblasts, value relative to DMSO: SU9516 analogs, C2C12 CMV-LacZ, N=2
Procedure, shortened: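 Dose-response runs at 0.5–40 μM (0.5, 1, 5, 10, 20, 40 μM; N=2 per point) used a clonal C2C12 line carrying CMV-LacZ. Cells were assayed as myoblasts or as differentiated myotubes, and β-galactosidase levels were read with the FDG fluorogenic substrate.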

[3] = tested on: α7 integrin (LacZ reporter in α7+/LacZ myotubes); test: Myotube α7 integrin FDG assay (Burkin assay in myotubes, 96-well); conditions: for Burkin Assay in Myotubes, value relative to DMSO: SU9516 analogs, 96-well, N=3-6
[4] = tested on: α7 integrin (LacZ reporter in α7βgal+/− myoblasts); test: Myoblast α7+/LacZ integrin FDG assay (Burkin assay in myoblasts, 96-well); conditions: for Burkin Assay in Myoblasts, signal relative to DMSO: α7+/LacZ myoblasts, 96-well
[5] = Mus musculus, Myoblast, 48 h, read-out: Burkin Assay in Myoblasts, value relative to DMSO

Compound: Nc1cccc(/C=C/C(=O)O)c1 [MLS000777780-01]
- CMV-LACZ in Myotubes, signal relative to DMSO ([1]; 0.5 uM): 0.8914
- CMV-LACZ in Myotubes, signal relative to DMSO ([1]; 1 uM): 0.8838
- CMV-LACZ in Myotubes, signal relative to DMSO ([1]; 5 uM): 1.0471
- CMV-LACZ in Myotubes, signal relative to DMSO ([1]; 10 uM): 0.8808
- CMV-LACZ in Myotubes, signal relative to DMSO ([1]; 20 uM): 0.9316
- CMV-LACZ in Myotubes, signal relative to DMSO ([1]; 40 uM): 1.0474
- CMV-LACZ in Myoblasts (β-galactosidase activity relative to DMSO) ([2]; 0.5 uM): 0.8779
- CMV-LACZ in Myoblasts (β-galactosidase activity relative to DMSO) ([2]; 1 uM): 0.9063
- CMV-LACZ in Myoblasts (β-galactosidase activity relative to DMSO) ([2]; 5 uM): 0.9893
- CMV-LACZ in Myoblasts (β-galactosidase activity relative to DMSO) ([2]; 10 uM): 1.0126
- CMV-LACZ in Myoblasts (β-galactosidase activity relative to DMSO) ([2]; 20 uM): 1.3393
- CMV-LACZ in Myoblasts (β-galactosidase activity relative to DMSO) ([2]; 40 uM): 0.9463
- Burkin Assay in Myotubes, α7 integrin LacZ reporter signal relative to DMSO ([3]; 0.5 uM): 1.047
- Burkin Assay in Myotubes, α7 integrin LacZ reporter signal relative to DMSO ([3]; 1 uM): 0.9837
- Burkin Assay in Myotubes, α7 integrin LacZ reporter signal relative to DMSO ([3]; 5 uM): 0.8697
- Burkin Assay in Myotubes, α7 integrin LacZ reporter signal relative to DMSO ([3]; 10 uM): 0.9393
- Burkin Assay in Myotubes, α7 integrin LacZ reporter signal relative to DMSO ([3]; 20 uM): 0.8814
- Burkin Assay in Myotubes, α7 integrin LacZ reporter signal relative to DMSO ([3]; 40 uM): 0.7756
- Burkin Assay in Myoblasts, signal relative to DMSO ([4]; 0.5 uM): 1.136
- Burkin Assay in Myoblasts, signal relative to DMSO ([4]; 1 uM): 1.056
- Burkin Assay in Myoblasts, signal relative to DMSO ([4]; 5 uM): 0.9439
- Burkin Assay in Myoblasts, signal relative to DMSO ([4]; 10 uM): 1.248
- Burkin Assay in Myoblasts, signal relative to DMSO ([4]; 20 uM): 0.9133
- Burkin Assay in Myoblasts, signal relative to DMSO ([4]; 40 uM): 0.7231

Compound: COc1ccc(Cl)cc1NC(=O)c1cc(-c2cc(C)ccc2O)n[nH]1 [MLS000779126-01]
- CMV-LACZ in Myotubes, signal relative to DMSO ([1]; 0.5 uM): 0.9495
- CMV-LACZ in Myotubes, signal relative to DMSO ([1]; 1 uM): 1.2162
- CMV-LACZ in Myotubes, signal relative to DMSO ([1]; 5 uM): 1.0257
- CMV-LACZ in Myotubes, signal relative to DMSO ([1]; 10 uM): 1.0467
- CMV-LACZ in Myotubes, signal relative to DMSO ([1]; 20 uM): 0.9988
- CMV-LACZ in Myotubes, signal relative to DMSO ([1]; 40 uM): 1.1671
- CMV-LACZ in Myoblasts (β-galactosidase activity relative to DMSO) ([2]; 0.5 uM): 0.9751
- CMV-LACZ in Myoblasts (β-galactosidase activity relative to DMSO) ([2]; 1 uM): 0.9994
- CMV-LACZ in Myoblasts (β-galactosidase activity relative to DMSO) ([2]; 5 uM): 0.9637
- CMV-LACZ in Myoblasts (β-galactosidase activity relative to DMSO) ([2]; 10 uM): 0.7610
- CMV-LACZ in Myoblasts (β-galactosidase activity relative to DMSO) ([2]; 20 uM): 0.9944
- CMV-LACZ in Myoblasts (β-galactosidase activity relative to DMSO) ([2]; 40 uM): 0.7441
- Burkin Assay in Myotubes, α7 integrin LacZ reporter signal relative to DMSO ([3]; 0.5 uM): 0.9836
- Burkin Assay in Myotubes, α7 integrin LacZ reporter signal relative to DMSO ([3]; 1 uM): 1.018
- Burkin Assay in Myotubes, α7 integrin LacZ reporter signal relative to DMSO ([3]; 5 uM): 0.9146
- Burkin Assay in Myotubes, α7 integrin LacZ reporter signal relative to DMSO ([3]; 10 uM): 0.8758
- Burkin Assay in Myotubes, α7 integrin LacZ reporter signal relative to DMSO ([3]; 20 uM): 0.8832
- Burkin Assay in Myotubes, α7 integrin LacZ reporter signal relative to DMSO ([3]; 40 uM): 0.7768
- Burkin Assay in Myoblasts, signal relative to DMSO ([4]; 0.5 uM): 1.019
- Burkin Assay in Myoblasts, signal relative to DMSO ([4]; 1 uM): 1.115
- Burkin Assay in Myoblasts, signal relative to DMSO ([4]; 5 uM): 0.9229
- Burkin Assay in Myoblasts, signal relative to DMSO ([4]; 10 uM): 0.8196
- Burkin Assay in Myoblasts, signal relative to DMSO ([4]; 20 uM): 0.9124
- Burkin Assay in Myoblasts, signal relative to DMSO ([4]; 40 uM): 0.9389

Compound: CCc1nc(/C=C2\C(=O)Nc3ccccc32)c[nH]1 [MLS000834755-01]
- CMV-LACZ in Myotubes, value relative to DMSO ([1]; 0.5 uM): 0.5547
- CMV-LACZ in Myotubes, value relative to DMSO ([1]; 1 uM): 1.2863
- CMV-LACZ in Myotubes, value relative to DMSO ([1]; 5 uM): 1.0514
- CMV-LACZ in Myotubes, value relative to DMSO ([1]; 10 uM): 1.1048
- CMV-LACZ in Myotubes, value relative to DMSO ([1]; 20 uM): 1.2989
- CMV-LACZ in Myotubes, value relative to DMSO ([1]; 40 uM): 0.8789
- CMV-LACZ in Myoblasts, value relative to DMSO ([2]; 0.5 uM): 1.0317
- CMV-LACZ in Myoblasts, value relative to DMSO ([2]; 1 uM): 1.0400
- CMV-LACZ in Myoblasts, value relative to DMSO ([2]; 5 uM): 0.9591
- CMV-LACZ in Myoblasts, value relative to DMSO ([2]; 10 uM): 0.9834
- CMV-LACZ in Myoblasts, value relative to DMSO ([2]; 20 uM): 0.9007
- CMV-LACZ in Myoblasts, value relative to DMSO ([2]; 40 uM): 0.9133
- Burkin Assay in Myotubes, value relative to DMSO ([3]; 0.5 uM): 1.263
- Burkin Assay in Myotubes, value relative to DMSO ([3]; 1 uM): 1.232
- Burkin Assay in Myotubes, value relative to DMSO ([3]; 5 uM): 1.003
- Burkin Assay in Myotubes, value relative to DMSO ([3]; 10 uM): 0.9868
- Burkin Assay in Myotubes, value relative to DMSO ([3]; 20 uM): 0.9687
- Burkin Assay in Myotubes, value relative to DMSO ([3]; 40 uM): 0.816
- fold induction at 0.5 µM [4, 5]: 1.27
- fold induction at 1 µM [4, 5]: 1.08
- fold induction at 5 µM [4, 5]: 1.08
- fold induction at 10 µM [4, 5]: 1.16
- fold induction at 20 µM [4, 5]: 1.19
- fold induction at 40 µM [4, 5]: 0.796
